Measured values from US9278925B2, “Substituted 3-(biphenyl-3-yl)-4-hydroxy-8-methoxy-1-azaspiro[4.5]dec-3-en-2-one” (BAYER INTELLECTUAL PROPERTY GMBH, priority 2011, dated 2016).
“And” between values parts separate entries of the source, which are not always exact repeats. Equal entries are not always repeated. Where two headings read alike, the source gives them in different places.

What was measured:
human ACC1 [1] = biological target: human ACC1 (Homo sapiens, UniProt Q13085); experiment: Human ACC1 enzyme assay (ADP-Glo); assay type: biochemical; settings: individual measurement (measurement no./preparation no. in table), read-out: ACC 1 IC50
Protocol: (§1) Typical concentrations were in the range of 1.75 μl.

human ACC1 [2] = experiment: Human ACC1 enzyme assay (ADP-Glo); assay type: biochemical; settings: for Ratio IC50s ACC2/ACC1 (respective measurement): pairwise, same dilution series
Protocol: as §1

## COC[C@]1(OC)CC[C@@]2(CC1)NC(=O)C(c1cc(-c3ccc(Cl)cc3)ccc1C)=C2O [Example 1-3, (5r,8r)-3-(4′-Chloro-4-methylbiphenyl-3-yl)-4-hydroxy-8-methoxy-8-(methoxymethyl)-1-azaspiro[4.5]dec-3-en-2-one]
Human ACC1 [1]
  IC50: 165 nM and 146 nM
Human ACC1 [2]
  Selectivity ACC1 vs. ACC2 (mean of the individual measurements ± standard deviation): 47.0 ± 2.1
  Ratio IC50s ACC2/ACC1 (respective measurement): 49.0 and 44.9

## CO[C@]1(C)CC[C@]2(CC1)NC(=O)C(c1cc(-c3ccc(Cl)cc3)ccc1C)=C2O [Example V.1-a, (5r,8r)-3-(4′-Chloro-4-methylbiphenyl-3-yl)-4-hydroxy-8-methoxy-8-methyl-1-azaspiro[4.5]dec-3-en-2-one]
Human ACC1 [1]
  IC50: 108 nM and 182 nM and 132 nM and 97 nM and 55 nM and 104 nM and 213 nM and 137 nM and 151 nM and 81 nM and 91 nM and 147 nM and 158 nM
Human ACC1 [2]
  Selectivity ACC1 vs. ACC2 (mean of the individual measurements ± standard deviation): 28.2 ± 8.5

## CO[C@]1(C)CC[C@]2(CC1)NC(=O)C(c1cc(-c3ccc(Cl)c(F)c3)ccc1C)=C2O [Example V.2-a, (5r,8r)-3-(4′-Chloro-3′-fluoro-4-methylbiphenyl-3-yl)-4-hydroxy-8-methoxy-8-methyl-1-azaspiro[4.5]dec-3-en-2-one]
Human ACC1 [1]; listed as V.4-a
  IC50: 83 nM and 249 nM and 63 nM and 67 nM and 154 nM and 184 nM (2×) and 90 nM and 87 nM and 75 nM
Human ACC1 [1]
  IC50: 83 nM and 249 nM and 63 nM and 67 nM and 154 nM and 184 nM (2×) and 90 nM and 87 nM and 75 nM
Human ACC1 [2]
  Selectivity ACC1 vs. ACC2 (mean of the individual measurements ± standard deviation): 57.2 ± 6.4
Human ACC1 [2]; listed as V.4-a
  Selectivity ACC1 vs. ACC2 (mean of the individual measurements ± standard deviation): 57.2 ± 26.4

## COC[C@H]1CC[C@]2(CC1)NC(=O)C(c1cc(-c3ccc(Cl)cc3)ccc1C)=C2O [V.3-b, (5s,8s)-3-(4′-Chloro-4-methylbiphenyl-3-yl)-4-hydroxy-8-(methoxymethyl)-1-azaspiro[4.5]dec-3-en-2-one]
Human ACC1 [2]
  Selectivity ACC1 vs. ACC2 (mean of the individual measurements ± standard deviation): 6.4
  Ratio IC50s ACC2/ACC1 (respective measurement): 6.4

## COC[C@H]1CC[C@]2(CC1)NC(=O)C(c1cc(-c3ccc(Cl)c(F)c3)ccc1C)=C2O [V.4-b, (5s,8s)-3-(4′-Chloro-3′-fluoro-4-methylbiphenyl-3-yl)-4-hydroxy-8-(methoxymethyl)-1-azaspiro[4.5]dec-3-en-2-one]
Human ACC1 [1]
  IC50: 73 nM
Human ACC1 [2]
  Selectivity ACC1 vs. ACC2 (mean of the individual measurements ± standard deviation): 15.2
  Ratio IC50s ACC2/ACC1 (respective measurement): 15.2
